Counter-ions that a name gives are not always drawn.
Key:
Adrenergic β2 = target: T1, Adrenergic β2 (Homo sapiens, UniProt P07550); assay: Adrenergic β2 mediated cAMP production in H292 cells (AlphaScreen cAMP detection); assay type: cell-based; design: key to β2 Int Act: fraction of formoterol maximum activity (formoterol = 1); settings: for β2 Int Act: Intrinsic Activity as a fraction relative to the maximum activity determined for formoterol; for EC50: cAMP production, 60 minutes at room temperature, 300 μM rolipram, read-out: β2 pEC50 (converted)
T1 construct: Adherent H292 cells were removed from tissue culture flasks; endogenous in cells; host or cells: H292 cells
T1 sequence (P07550 whole entry): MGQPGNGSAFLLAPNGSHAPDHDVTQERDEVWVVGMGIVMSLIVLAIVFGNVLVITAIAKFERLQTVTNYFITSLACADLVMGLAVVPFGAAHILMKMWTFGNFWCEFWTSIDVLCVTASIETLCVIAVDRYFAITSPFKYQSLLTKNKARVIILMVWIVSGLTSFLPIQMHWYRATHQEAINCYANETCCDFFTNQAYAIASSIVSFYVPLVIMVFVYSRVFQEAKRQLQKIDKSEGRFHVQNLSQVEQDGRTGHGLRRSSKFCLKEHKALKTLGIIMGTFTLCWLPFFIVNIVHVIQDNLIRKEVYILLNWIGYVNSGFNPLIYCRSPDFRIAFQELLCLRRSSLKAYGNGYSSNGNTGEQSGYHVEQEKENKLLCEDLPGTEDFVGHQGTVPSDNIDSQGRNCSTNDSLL
In short: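 H292 cells pre-treated 10 min with rolipram (300 μM final), then given agonist for 60 min at room temperature in HBSS/10 mM HEPES pH 7.4, 1.6% DMSO final. Lysate cAMP measured by AlphaScreen against a cAMP standard curve. Four-parameter fit gives pEC50; intrinsic activity relative to formoterol maximum.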

[1] = target: T2, recombinant human Dopamine Subtype D2s receptors (Homo sapiens, UniProt P14416); assay: Dopamine D2 selectivity assay, [3H]-spiperone binding to membranes; settings: inhibition of [3H]-spiperone binding, read-out: D2 bind pIC50 (converted)
T2 construct: purchased Perkin Elmer
T2 sequence (P14416 1-414 isoform P14416-2): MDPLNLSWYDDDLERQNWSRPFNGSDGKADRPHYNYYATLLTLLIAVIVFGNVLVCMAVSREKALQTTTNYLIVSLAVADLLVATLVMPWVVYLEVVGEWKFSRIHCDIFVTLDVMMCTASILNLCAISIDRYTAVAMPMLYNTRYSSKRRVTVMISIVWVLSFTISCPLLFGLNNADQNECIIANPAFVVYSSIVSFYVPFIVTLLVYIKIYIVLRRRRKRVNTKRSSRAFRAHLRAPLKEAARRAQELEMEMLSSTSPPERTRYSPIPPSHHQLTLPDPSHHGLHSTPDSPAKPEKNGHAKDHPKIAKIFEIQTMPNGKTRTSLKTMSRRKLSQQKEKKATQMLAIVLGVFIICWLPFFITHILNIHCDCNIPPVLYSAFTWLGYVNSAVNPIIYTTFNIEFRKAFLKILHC
In short: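 Human D2s receptor membranes incubated 2 h at room temperature with 0.16 nM [3H]-spiperone and test compound in HEPES buffer pH 7.4 (120 mM NaCl, 0.1% gelatin). Non-specific binding defined with 10 μM haloperidol; filter-bound radioactivity counted, pIC50 from four-parameter logistic fit.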

Structure (SMILES) | β2 Int Act (Adrenergic β2) | EC50 (Adrenergic β2) [nM] | IC50 [1] [nM]
CCCC[C@@H](C)N(CCNCCc1ccc(O)c2c1OCC(=O)N2)C(=O)CCNCCc1cc(F)ccc1F [Example 54, (R)-3-(2,5-Difluorophenethylamino)-N-(hexan-2-yl)-N-(2-(2-(5-hydroxy-3-oxo-3,4-dihydro-2H-benzo[b][1,4]oxazin-8-yl)ethylamino)ethyl)propanamide bis(trifluoroacetate)] | 0.96 | 5.01 | 31.6
O=C1COc2c(CCNCCN(C(=O)CCNCCc3ccc(F)c(F)c3)C3CCCCCC3)ccc(O)c2N1 [Example 67, N-Cycloheptyl-3-(3,4-difluorophenethylamino)-N-(2-(2-(5-hydroxy-3-oxo-3,4-dihydro-2H-benzo[b][1,4]oxazin-8-yl)ethylamino)ethyl)propanamide bis(trifluoroacetate)] | 0.87 | 3.16 | 100
O=C1COc2c(CCNCCN(C(=O)CCNCCc3ccc(F)c(F)c3)C3CCCCC3)ccc(O)c2N1 [Example 42, N-Cyclohexyl-3-(3,4-difluorophenethylamino)-N-(2-(2-(5-hydroxy-3-oxo-3,4-dihydro-2H-benzo[b][1,4]oxazin-8-yl)ethylamino)ethyl)propanamide bis(trifluoroacetate)] | 0.9 | 2 | 316
O=C1COc2c(CCNCCN(C(=O)CCNCCc3cc(F)ccc3F)C3CCCCCC3)ccc(O)c2N1 [Example 64, N-Cycloheptyl-3-(2,5-difluorophenethylamino)-N-(2-(2-(5-hydroxy-3-oxo-3,4-dihydro-2H-benzo[b][1,4]oxazin-8-yl)ethylamino)ethyl)propanamide bis(trifluoroacetate)] | 0.88 | 0.631 | 63.1
C[C@H](C1CCCCC1)N(CCNCCc1ccc(O)c2c1OCC(=O)N2)C(=O)CCNCCc1ccccc1 [Example 61, (R)—N-(1-Cyclohexylethyl)-N-(2-(2-(5-hydroxy-3-oxo-3,4-dihydro-2H-benzo[b][1,4]oxazin-8-yl)ethylamino)ethyl)-3-(phenethylamino)propanamide bis(trifluoroacetate)] | 0.84 | 3.16 | 100
O=C1COc2c(CCNCCN(C(=O)CCNCCc3cc(F)ccc3F)C3CCCCC3)ccc(O)c2N1 [Example 38, N-Cyclohexyl-3-(2,5-difluorophenethylamino)-N-(2-(2-(5-hydroxy-3-oxo-3,4-dihydro-2H-benzo[b][1,4]oxazin-8-yl)ethylamino)ethyl)propanamide bis(trifluoroacetate)] | 0.98 | 1.26 | 126
CCCC[C@@H](C)N(CCNCCc1ccc(O)c2c1OCC(=O)N2)C(=O)CCNCCc1ccc(Cl)c(Cl)c1 [Example 55, (R)-3-(3,4-Dichlorophenethylamino)-N-(hexan-2-yl)-N-(2-(2-(5-hydroxy-3-oxo-3,4-dihydro-2H-benzo[b][1,4]oxazin-8-yl)ethylamino)ethyl)propanamide bis(trifluoroacetate)] | 0.92 | 31.6 | 50.1
O=C(CCNCCc1cccc(F)c1F)N(CCNCCc1ccc(O)c2[nH]c(=O)ccc12)C1CCCCC1 [Example 18, N-Cyclohexyl-3-(3-difluorophenethylamino)-N-(2-(2-(8-hydroxy-2-oxo-1,2-dihydroquinolin-5-yl)ethylamino)ethyl)propanamide bis(trifluoroacetate)] | 0.95 | 12.6 | 3160
O=C1COc2c(CCNCCN(C(=O)CCNCCc3ccccc3)C3CCCCCC3)ccc(O)c2N1 [Example 24, N-Cycloheptyl-N-(2-(2-(5-hydroxy-3-oxo-3,4-dihydro-2H-benzo[b][1,4]oxazin-8-yl)ethylamino)ethyl)-3-(phenethylamino)propanamide bis(trifluoroacetate)] | 0.85 | 1 | 158
CC(C)[C@@H](C)N(CCNCCc1ccc(O)c2c1OCC(=O)N2)C(=O)CCNCCc1ccc(Cl)c(Cl)c1 [Example 59, (R)-3-(3,4-Dichlorophenethylamino)-N-(2-(2-(5-hydroxy-3-oxo-3,4-dihydro-2H-benzo[b][1,4]oxazin-8-yl)ethylamino)ethyl)-N-(3-methylbutan-2-yl)propanamide dihydrochloride] | 0.87 | 3.98 | 100
O=CNc1cc(CCNCCN(C(=O)CCNCCc2ccccc2)C2CCCCC2)ccc1O [Example 21, N-Cyclohexyl-N-(2-(3-formamido-4-hydroxyphenethylamino)ethyl)-3-(phenethylamino)propanamide] | 0.83 | 31.6 | 1260
CCCC[C@@H](C)N(CCNCCc1ccc(O)c2c1OCC(=O)N2)C(=O)CCNCCc1cccc(Cl)c1 [Example 44, (R)-3-(3-Chlorophenethylamino)-N-(hexan-2-yl)-N-(2-(2-(5-hydroxy-3-oxo-3,4-dihydro-2H-benzo[b][1,4]oxazin-8-yl)ethylamino)ethyl)propanamide bis(trifluoroacetate)] | 0.89 | 2 | 79.4
O=C1COc2c(CCNCCN(C(=O)CCNCCc3ccc(Cl)cc3)C3CCCCCC3)ccc(O)c2N1 [Example 63, 3-(4-Chlorophenethylamino)-N-cycloheptyl-N-(2-(2-(5-hydroxy-3-oxo-3,4-dihydro-2H-benzo[b][1,4]oxazin-8-yl)ethylamino)ethyl)propanamide bis(trifluoroacetate)] | 0.79 | 2 | 39.8

Further lines, results first:

β2 Int Act (Adrenergic β2) | EC50 (Adrenergic β2) [nM] | IC50 [1] [nM] | Structure (SMILES)
1.04 | 25.1 | 2510 | CC(C)[C@@H](C)N(CCNCCc1ccc(O)c2[nH]c(=O)ccc12)C(=O)CCOCCc1ccccc1.Cl [Example 80, (R)—N-(2-(2-(8-Hydroxy-2-oxo-1,2-dihydroquinolin-5-yl)ethylamino)ethyl)-N-(3-methylbutan-2-yl)-3-phenethoxypropanamide hydrochloride]
0.79 | 20 | 79.4 | O=C(CCNCCc1ccc(Cl)cc1)N(CCNCCc1ccc(O)c2[nH]c(=O)ccc12)C1CCCCCC1 [Example 4, 3-(4-Chlorophenethylamino)-N-cycloheptyl-N-(2-(2-(8-hydroxy-2-oxo-1,2-dihydroquinolin-5-yl)ethylamino)ethyl)propanamide bis(trifluoroacetate)]
0.88 | 1.58 | 158 | O=C1COc2c(CCNCCN(C(=O)CCNCCc3cccc(F)c3)C3CCCCCC3)ccc(O)c2N1 [Example 69, N-Cycloheptyl-3-(3-fluorophenethylamino)-N-(2-(2-(5-hydroxy-3-oxo-3,4-dihydro-2H-benzo[b][1,4]oxazin-8-yl)ethylamino)ethyl)propanamide bis(trifluoroacetate)]
0.95 | 10 | 63.1 | CCCC[C@@H](C)N(CCNCCc1ccc(O)c2c1OCC(=O)N2)C(=O)CCNCCc1ccc(F)c(F)c1 [Example 52, (R)-3-(3,4-Difluorophenethylamino)-N-(hexan-2-yl)-N-(2-(2-(5-hydroxy-3-oxo-3,4-dihydro-2H-benzo[b][1,4]oxazin-8-yl)ethylamino)ethyl)propanamide bis(trifluoroacetate)]
0.93 | 3.98 | 100 | O=C1COc2c(CCNCCN(C(=O)CCNCCc3cccc(Cl)c3)C3CCCCCC3)ccc(O)c2N1 [Example 68, 3-(3-Chlorophenethylamino)-N-cycloheptyl-N-(2-(2-(5-hydroxy-3-oxo-3,4-dihydro-2H-benzo[b][1,4]oxazin-8-yl)ethylamino)ethyl)propanamide bis(trifluoroacetate)]
1.1 | 1.58 | 2510 | O=C1COc2c(CCNCCN(C(=O)CCOCCc3ccccc3F)C3CCCCC3)ccc(O)c2N1 [Example 76, N-Cyclohexyl-3-(2-fluorophenethoxy)-N-(2-(2-(5-hydroxy-3-oxo-3,4-dihydro-2H-benzo[b][1,4]oxazin-8-yl)ethylamino)ethyl)propanamide trifluoroacetate]
0.65 | 79.4 | 501 | CCOc1cccc(CCNCCC(=O)N(CCNCCc2ccc(O)c3[nH]c(=O)ccc23)C2CCCCCC2)c1 [Example 11, N-Cycloheptyl-3-(3-ethoxyphenethylamino)-N-(2-(2-(8-hydroxy-2-oxo-1,2-dihydroquinolin-5-yl)ethylamino)ethyl)propanamide bis(trifluoroacetate)]
0.98 | 1.58 | 100 | O=C1COc2c(CCNCCN(C(=O)CCNCCc3cccc(Cl)c3F)C3CCCCC3)ccc(O)c2N1 [Example 39, 3-(3-Chloro-2-fluorophenethylamino)-N-cyclohexyl-N-(2-(2-(5-hydroxy-3-oxo-3,4-dihydro-2H-benzo[b][1,4]oxazin-8-yl)ethylamino)ethyl)propanamide bis(trifluoroacetate)]
0.97 | 3.98 | 1000 | O=C1COc2c(CCNCCN(C(=O)CCOCCc3ccccc3)C3CCCCC3)ccc(O)c2N1 [Example 70, N-Cyclohexyl-N-(2-(2-(5-hydroxy-3-oxo-3,4-dihydro-2H-benzo[b][1,4]oxazin-8-yl)ethylamino)ethyl)-3-phenethoxypropanamide trifluoroacetate]
